Experimental findings from patent US4670431A, “Beta-lactam antibacterial agents” (Beecham Group p.l.c., priority 1983, dated 1987) are described below.

The assay relates to P. mirabilis 889. The assay is described as follows: MIC against P. mirabilis 889. It counts as cell-based, Proteus mirabilis. The source says:
The antibiotic compounds of the present invention are active against a wide range of gram negative and gram positive organisms including E. coli such as, for example ESS, JT4, JT425 and NCTC 10418; Pseudomonas Spp. such Ps.aeruginosa for example 10662 and Dalgleish; Serratia marcescens US32; Klebsiella aerogenes A; Enterobacter cloacae N1; P.mirabilis such as, for example C977 and 889; P.morganii, P.rettgeri; B.subtilis; Staph aureus such as, for example Oxford and Russell; N.catarrhalis 1502; Strep faecalis I; β-Haemolytic Strep CN10. The MIC data included in the following examples is representative of the activity of the compounds of the present invention.

With `CC1(C)[C@H](C(=O)O)N2C(=O)[C@@](NC=O)(NC(=O)[C@H](NC(=O)N3CCN(S(C)(=O)=O)C3=O)c3ccc(O)cc3)[C@H]2[S+]1[O-]` (single isomer, unassigned; isomer b) [Example 24, Sodium 6β-[D-2-(4-hydroxyphenyl)-2-[[3-(methylsulphonyl)-2-oxoimidazolidin-1-yl]carbonylamino]acetamido]-6α-formamidopenicillanate-1-oxide (isomer B)], where the note is “Proteus mirabilis, 889”, the MIC was found to be 2 µg/mL. In the case of `NC(=O)OCC1=C(C(=O)O)N2C(=O)[C@@](NC=O)(NC(=O)Cc3cccs3)[C@H]2SC1` [Example 26(b), Sodium 3-carbamoyloxymethyl-7α-formamido-7β-thien-2-yletamido-ceph-3-em-4-carboxylate], the MIC (Proteus mirabilis, 889, broth) was found to be 16 µg/mL. `CC(=O)OCC1=C(C(=O)O)N2C(=O)[C@@](NC=O)(NC(=O)Cc3cccs3)[C@H]2[S@@+]([O-])C1` [Example 27(b), Sodium 7α-Formamido-7β-thien-2-ylacetamidocephalosporanate-1β-oxide] returned an MIC (Proteus mirabilis, 889) of 8 µg/mL. The compound `CCN1CCN(C(=O)N[C@@H](C(=O)N[C@]2(NC=O)C(=O)N3C(C(=O)O)=C(CSc4nnnn4C)C[S@+]([O-])[C@@H]32)c2ccccc2)C(=O)C1=O` [Example 8(e), Sodium 7β-[D-2-[(4-Ethyl-2,3-dioxopiperazin-1-yl)carbonylamino]-2-phenylacetamido]-7α-formamido-3-[(1-methyl-1H-tetrazol-5-yl)thiomethyl]ceph-3-em-4-carboxylate-1β-oxide] had an MIC (Proteus mirabilis, 889) of 0.5 µg/mL.

For `CCN1CCN(C(=O)N[C@@H](C(=O)N[C@]2(NC=O)C(=O)N3C(C(=O)O)=C(CSc4nnnn4C)C[S+]([O-])[C@@H]32)c2ccc(OC(C)=O)c(OC(C)=O)c2)C(=O)C1=O` (single isomer, unassigned) [Example 5 Isomer A, Sodium 7β-[D-2-(3,4-diacetoxyphenyl)-2-[(4-ethyl-2,3-dioxopiperazin-1-yl)carbonylamino]acetamido]-7α-formamido-3-[(1-methyl-1H-tetrazol-5-yl)thiomethyl]-ceph-3-em-4-carboxylate-1-oxide], the “MIC against P. mirabilis 889” value stood at 0.5 µg/mL.

With `CCN1CCN(C(=O)N[C@@H](C(=O)N[C@]2(NC=O)C(=O)N3C(C(=O)O)=C(COC(C)=O)C[S+]([O-])[C@@H]32)c2ccc(OC(C)=O)c(OC(C)=O)c2)C(=O)C1=O` (single isomer, unassigned) [Example 1 Isomer B, Sodium 7β-[D-2-[(4-ethyl-2,3-dioxopiperazin-1-yl)carbonylamino]-2-(3,4-diacetoxyphenyl)acetamido]-7α-formamidocephalosporanate-1-oxide], the “MIC against P. mirabilis 889” value is under 0.06 µg/mL. On the same count and under the same terms, under `CCN1CCN(C(=O)N[C@@H](C(=O)N[C@]2(NC=O)C(=O)N3[C@@H](C(=O)O)C(C)(C)[S+]([O-])[C@@H]32)c2ccc(OC(C)=O)c(OC(C)=O)c2)C(=O)C1=O` (single isomer, unassigned; isomer b) [Example 18, Sodium 6β-[D-2-[(4-ethyl-2,3-dioxopiperazin-1-yl)carbonylamino]-2-(3,4-diacetoxyphenyl)acetamido]-6α-formamidopenicillanate-1-oxide, Isomer B] stands 0.5 µg/mL.

The MIC is the least concentration at which growth counts as inhibited. Higher therefore signals a less susceptible organism.
